What was measured:
[1] = molecular target: bovine cytosolic carbonic anhydrase II (bCA II) (Bos taurus, UniProt P00921); test: In vitro carbonic anhydrase inhibition assay (p-nitrophenyl acetate hydrolysis); format: biochemical; conditions: for IC50: mean of three independent experiments ± SEM; for inhibition at 500 µM: at 0.5 mM concentration of tested compounds, mean ± SEM
Experimental: Carbonic anhydrase inhibition was measured by the reported method after standardization of reaction conditions such as concentration of enzyme and substrate, buffer pH, and duration of reaction. The method is based on spectrophotometric determination p-nitrophenol, the CA catalyzed hydrolysis product of p-nitrophenyl acetate. The reaction mixture consisted of 60 μL of 50 mM Tris-sulfate buffer (pH 7.6, containing 0.1 mM ZnCl2), 10 μL (0.5 mM) test compound in 1% DMSO, and 10 μL (50 U) bovine enzyme per well. […] Substrate, p-nitrophenyl acetate (6 mM stock using <5% acetonitrile in buffer), 20 μL was freshly prepared and added per well to achieve […] concentration per well. Total reaction volume was made to 100 μL.
The CA active site residues involved in direct zinc binding are His94, His96, and His119. In addition the substrate (CO2) association pocket, Thr199 loop, and the histidine proton shuttle mechanism (for regeneration of active site Zn bound hydroxide ion) are essential for CA catalytic activity and are highly conserved in all alpha class CAs. For this reason initial screening against bCA-II was carried out.

bovine cytosolic carbonic anhydrase II (bCA II), sequence (P00921 whole entry): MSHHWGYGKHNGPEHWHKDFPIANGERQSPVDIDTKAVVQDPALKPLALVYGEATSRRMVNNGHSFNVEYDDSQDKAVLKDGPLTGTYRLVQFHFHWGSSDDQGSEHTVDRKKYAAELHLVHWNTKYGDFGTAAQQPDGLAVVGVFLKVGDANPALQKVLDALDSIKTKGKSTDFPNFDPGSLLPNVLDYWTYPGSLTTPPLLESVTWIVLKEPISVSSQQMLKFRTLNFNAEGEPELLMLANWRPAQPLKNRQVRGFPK

Row | IC50 [1] [µM] | melting point [°C] | inhibition at 500 µM [1] [%] | SMILES
1 | 4.14 ± 0.02 | 235 to 237 | – | Cc1ccnc(NS(=O)(=O)c2ccc(Nc3nc(Cl)nc(Cl)n3)cc2)n1 [1a, 4-[(4,6-Dichloro-1,3,5-triazin-2-yl)amino]-N-(4-methylpyrimidin-2-yl)benzenesulfonamide]
2 | 24.9 ± 0.03 | 221 to 223 | – | O=S(=O)(Nc1ncccn1)c1ccc(Nc2nc(Cl)nc(Cl)n2)cc1 [3a, 4-[(4,6-Dichloro-1,3,5-triazin-2-yl)amino]-N-(pyrimidin-2-yl)benzenesulfonamide]
3 | 14.9 ± 0.02 | 327 to 329 | – | Cc1cc(C)nc(NS(=O)(=O)c2ccc(Nc3nc(Cl)nc(Cl)n3)cc2)n1 [4a, 4-[(4,6-Dichloro-1,3,5-triazin-2-yl)amino]-N-(4,6-dimethylpyrimidin-2-yl)benzenesulfonamide]

The remaining lines, values behind:

Row | SMILES | IC50 [1] [µM] | melting point [°C] | inhibition at 500 µM [1] [%]
4 | O=S(=O)(Nc1cnc2ccccc2n1)c1ccc(Nc2nc(Cl)nc(Cl)n2)cc1 [2a, 4-[(4,6-Dichloro-1,3,5-triazin-2-yl)amino]-N-(quinoxalin-2-yl)benzenesulfonamide] | 105.3 ± 0.16 | 268 to 270 | –
5 | Nc1ccc(S(=O)(=O)Nc2cnc3ccccc3n2)cc1 [2b, sulfaquinoxaline, reference compound] | – | – | 51.8
6 | Cc1cc(C)nc(NS(=O)(=O)c2ccc(N)cc2)n1 [4b, sulfadimidine, reference compound] | – | – | 41.7
7 | O=S(=O)(Nc1cncc(Cl)n1)c1ccc(Nc2nc(Cl)nc(Cl)n2)cc1 [5a, N-(6-Chloropyrazin-2-yl)-4-[(4,6-dichloro-1,3,5-triazin-2-yl)amino]benzenesulfonamide] | 1.49 ± 0.006 | 236 to 238 | –
8 | Nc1ccc(S(=O)(=O)Nc2cncc(Cl)n2)cc1 [5b, sulfachloropyrazine, reference compound] | – | – | 42.4

— article PMC4241293, “Sulfa Drugs as Inhibitors of Carbonic Anhydrase: New Targets for the Old Drugs” (BioMed Research International, 2014)
